B1: 6A-466: RRV with yCD2 and minimum IRES, 6As, base 183 to 544 of SEQ ID NO:41 (nucleic acid, listed as Encephalomyocarditis virus)
DNA: AGGAAGCAGTTCCTCTGGAAGCTTCTTGAAGACAAACAACGTCTGTAGCGACCCTTTGCAGGCAGCGGAACCCCCCACCTGGCGACAGGTGCCTCTGCGGCCAAAAGCCACGTGTATAAGATACACCTGCAAAGGCGGCACAACCCCAGTGCCACGTTGTGAGTTGGATAGTTGTGGAAAGAGTCAAATGGCTCTCCTCAAGCGTATTCAACAAGGGGCTGAAGGATGCCCAGAAGGTACCCCATTGTATGGGATCTGATCTGGGGCCTCGGTGCACATGCTTTACATGTGTTTAGTCGAGGTTAAAAANCGTCTAGGCCCCCCGAACCACGGGGACGTGGTTTTCCTTTGAAAAACACGAT
modifications: (492)..(492) “n” can be present or absent, if present n is “A”

Tests used:
[1] = Intravenous Toca 511 in Balb/c mice, long-term vector biolocalization study; type: in vivo
From the text: Intravenous injection of Toca 511 into Balb/C mice. 2.35×10̂6 or 2.35×10̂5 TU of Toca 511 was intravenously administered to 8-week-old female Balb/C mice. Approximately 180 days post infection, genomic DNA from various tissues was harvested for bio-locolization study. Genomic DNA from abnormal tissues such as thymus or lymph node was extracted for sequence analysis of the envelope and IRES-yCD2 cassette.
RRV can undergo changes in the length of the oligo adenosine in the A bulge of the EMCV IRES in vivo. […] In a vector biolocalization study conducted as part of a preclinical package to support initiation of clinical trials, Toca 511 was injected intravenously into a permissive mouse strain (Balb/c mice) to evaluate long-term vector bio-localization. […] DNA from the abnormal thymus or lymph nodes of 3 mice were harvested for molecular PCR cloning of proviral sequences, followed by sequencing analysis. One feature was that there were multiple copies of the virus including recombinants with endogenous mouse MCF envelope sequences present, as occurs with lymphomagenesis with ecotropic MLV infection (Fan, 1997). Further analyses are planned for a future publication. […] It appears that the oligo A number drifts preferentially towards longer oligo A in the A bulge. However, the nature of this preference was undefined in the in vivo study.

U87-MG cells = test: yCD2 protein expression by immunoblot in infected U87-MG cells; type: cell-based, human; conditions: fully infected U87-MG cells
Method: RRVs containing various numbers of A's in the J-K bifurcation region express similar levels of transcripts but different levels of protein expression. The viral supernatant from HT1080 cells was then used to infect naive U87-MG cells at multiplicity of infection (MOI) of 0.1. At day 10 post infection, when the cells were fully infected, cellular viral RNA levels were measured by quantitative real-time polymerase chain reaction (qRT-PCR), and protein expression level of yCD2 was examined by immunoblotting (Perez et al., 2012). The cellular viral RNA expression levels were measured using two different primer sets, located in the env (5′Env2: 5′-[…]-3′ (SEQ ID NO:47), 3′Env2: 5′-[…]-3′ (SEQ ID NO:48), probe: 5′FAM-[…]-3′BHQ (SEQ ID NO:49)) and in yCD2 region (5′yCD2: 5′-[…]-3′ (SEQ ID NO:50), 3′yCD2: 5′-[…]-3′ (SEQ ID NO:51), probe: 5′FAM-[…]-3′BHQ (SEQ ID NO:52)), respectively, (FIG. 2). The relative level of RNA from each vector was calculated using 2-^ΔΔ(Ct) method with respect to the vector containing the 6As. […] Therefore, the effect of the number of A's in the loop were analyzed with another transgene for which the protein expression assay was well defined. […]
Immunoblot and cell-based yCD2 enzymatic assay. […] Quantity One software (Bio-Rad) was used to quantify the signal of yCD2 and GAPDH detected on the immunoblots. […]

Row | Molecule | mice with abnormalities in lymphoid tissues ([1]; higher doses, 180 days, depending on the cohort) | change of oligo A length in A bulge of integrated proviruses in vivo ([1]; intravenous, approximately 180 days, abnormal thymus or lymph node) | yCD2 protein expression in comparison to the 6A variant with full-length IRES (U87-MG cells)
1 | Toca 511: RRV with a 7A IRES expressing yCD2 (pAC3-yCD2; SEQ ID NO:22) | 10-20% | heterogeneous expansions of 7A to 8A, 9A, 10A, 11A and 12A and a contraction of 7A to 6A | 
2 | B1 |  |  | shows expression of yCD2
